From PMC2915899 (Journal of medicinal chemistry, 2010)

Assays:
NadD = NadD inhibition, enzyme species not stated at the place; type: biochemical; conditions: 1_02_1 compared with 1_13 and 1_15 (Fig. 4A)
baNadD = baNadD (Bacillus anthracis, UniProt C3L5T6); type: biochemical
baNadD, sequence (C3L5T6 whole entry, looked up): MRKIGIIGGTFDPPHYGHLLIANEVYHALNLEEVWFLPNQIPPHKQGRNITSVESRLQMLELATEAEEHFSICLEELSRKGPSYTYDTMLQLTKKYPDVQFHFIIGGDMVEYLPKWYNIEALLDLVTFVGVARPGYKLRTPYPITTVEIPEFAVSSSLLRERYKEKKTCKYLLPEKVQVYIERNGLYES

Compound | improvement in activity over monomeric precursors 1_13 and 1_15 (NadD) | inhibition of baNadD (baNadD)
O=C(CCC(=O)Nc1ccccc1Cl)N/N=C/c1ccc(/C=N/NC(=O)CCC(=O)Nc2ccccc2Cl)cc1 [Compound 1_02_1, N-(2-Chloro-phenyl)-3-(4-{[3-(2-chloro-phenylcarbamoyl)-propionyl]-hydrazonomethyl}-benzylidene-hydrazinocarbonyl)-propionamide] | more than 10 fold | –
{N'-(4-{Carboxymethyl-[3-(2-chloro-phenylcarbamoyl)-propionyl]-hydrazonomethyl}-benzylidene)-N-[3-(2-chloro-phenylcarbamoyl)-propionyl]-hydrazino}-acetic acid [Compound 1_02_2] | – | did not inhibit
